Data from patent US20260364184A1, “COMPOUND BASED ON OXOISOINDOLINYL-SUBSTITUTED TETRAHYDROPYRIMIDINE-DIONE AND USE THEREOF” (GLUETACS THERAPEUTICS (SHANGHAI) CO., LTD., priority 2023, published 2026).
Read-outs that look alike come from different tables or passages of the source.

How the values were obtained:
[1] = test system: Human myeloid monocytic leukemia cell line (MV-4-11); experiment: Inhibition of MV-4-11 cell proliferation (CellTiter luminescent viability); type: cell-based; settings: Homo sapiens, MV4-11, 96 hours; for inhibition at 0.01 µM: MV-4-11, 10 nM, read-out: Inhibition Rate at 10 nM (%); for inhibition at 0.5 µM: MV-4-11, 500 nM, read-out: Inhibition Rate at 500 nM (%)
Procedure, shortened: (§1)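 IC50 is fitted from luminescent viability (CellTiter-Meiluncell) curves. Nine-point, 5-fold dilution series (top stock 2000 μM) are added at 0.5 μL per 100 μL medium to cells plated the day before, with growth at 37 °C and 5% CO2.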

[2] = test system: Human lung cancer cell line (H292); experiment: Inhibition of H292 cell proliferation (CellTiter luminescent viability); type: cell-based; settings: 96 hours; for inhibition at 0.01 µM: H292, 10 nM, read-out: Inhibition Rate at 10 nM (%); for inhibition at 0.5 µM: H292, 500 nM, read-out: Inhibition Rate at 500 nM (%)
Description: (§2) The tumor cells used herein were cultured in a cell culture medium listed in table 3 at 37 °C in an incubator with 5% CO2. Prior to experimentation, all cell lines used were correctly identified by STR profiling, and tested negative for mycoplasma contamination using a mycoplasma detection kit through routine screenings.
(§3) The IC50 values of the compounds of the present disclosure (including the compounds in Table 1, Table 2, and Examples 1-468) were determined using the CellTiter-Meiluncell Luminescent Cell Viability Assay Kit from Dalian Meilun Biotech Co., Ltd. The detailed procedure is as follows: Tumor cells were seeded in 96-well cell culture plates at the densities specified in Table 4. On the following day, the test compounds of the present disclosure were subjected to serial dilution. The dilution can be performed according to one of the following two methods: • (1) The first dilution method: The test compounds of the present disclosure (including the compounds in Table 1, Table 2, and Examples 1-468) were subjected to 5-fold serial dilutions starting from a highest concentration of 2000 μM, resulting in a total of 9 concentrations from high to low (2000, 400, 80, 16, 3.2, 0.64, 0.128, 0.0256, 0.00512 μM). Subsequently, 0.5 μL of the test compound dilution was transferred into the 96-well plate containing the cells, with each well containing 100 μL of cell culture medium. […] Into the 96-well plate, the diluted test compounds and corresponding detection reagents were added, resulting in final test compound concentrations of 500 nM and 10 nM, respectively. The experimental procedure is described below using the diluted 2 μM test compound as an example.
(§4) 0.5 μL of the aforementioned diluted compound of the present disclosure (including the compounds in Table 1, Table 2, and Examples 1-468) was added to the seeded cells in 100 μL of medium, yielding a final test compound concentration of 10 nM. After the cells were treated with the compounds of the present disclosure for a specified period, the cell viability assay reagent was added to the culture medium according to the kit's instructions to determine cell viability. […] All controls were treated using the same procedure as the compounds of the present disclosure. The growth inhibition curves for the compounds of the present disclosure were plotted using Prism GraphPad software, and the IC50 values were calculated therefrom.

[3] = test system: Human Multiple myeloma cell line (MM.1S); experiment: Inhibition of MM.1S cell proliferation (CellTiter luminescent viability); type: cell-based; settings: Homo sapiens, MM1.S, Table IJ1, Tau inhibitor-based, 96 hours
Procedure, shortened: as §1

[4] = test system: Human diffuse large B-cell lymphoma cell line (TMD8); experiment: Inhibition of TMD8 cell proliferation (CellTiter luminescent viability); type: cell-based; settings: Homo sapiens, TMD8, 96 h, Table IJ3, Tau inhibitor-based
Description: as §2, §3, §4

[5] = molecular target: T1, human Cereblon WT GST-tagged protein (CRBN) (Homo sapiens, UniProt Q96SW2); experiment: CRBN binding by HTRF (Cereblon binding kit)
T1 construct: purchased CISBIO 64BDCRBNPEH
Description: The CEREBLON BINDING kits (specification: 10,000 tests; product number: Catalog #64BDCRBNPEH; CISBIO company) was used to determine the CRBN binding ability of the compounds to be tested through a HTRF method (homogeneous time-resolved fluorescence). The specific methods are as follows: • 1. According to the instructions of the CEREBLON BINDING KITS, serial dilutions were performed for the test compounds of the present disclosure (including the compounds in Table 1, Table 2, and Examples 1-468) and for lenalidomide. Specifically, diluent #9 (1×) solution was used as the diluent, and multiple concentration gradients were set. The dilution operation can be performed according to one of the following two methods: • (1) The first dilution method: The test compounds of the present disclosure (including the compounds in Table 1, Table 2, and Examples 1-468) were subjected to 5-fold serial dilutions starting from a highest concentration of 40 μM, resulting in a total of 7 concentrations from high to low (40, 8, 1.6, 0.32, 0.064, 0.0128, 0.00256 μM). Subsequently, the diluted test compounds and corresponding detection reagents were added to each well of a 96-well plate, resulting in final test compound concentrations of 10, 2, 0.4, 0.08, 0.016, 0.0032, and 0.00064 μM, respectively. • (2) As an alternative, a second dilution method can be used: The test compounds of the present disclosure (including the compounds in Table 1, Table 2, and Examples 1-468) were subjected to 4-fold gradient dilutions starting from a highest concentration of 8 μM, resulting in 2 concentrations (8 μM, 2 μM). Into the 96-well plate, the diluted test compounds and corresponding detection reagents were added, resulting in final test compound concentrations of 2 μM and 0.5 μM, respectively. The experimental procedure is described below using the diluted 8 μM test compound and lenalidomide solutions as examples. • 2. 2.5 μL of the above 8 μM of the tested compounds and lenalidomide solution, as well as the same volume of diluent #9 (1×) solution (solvent control group, Std0) were added to each well of a 96-well plate, respectively. Then, 2.5 μL of human Cereblon WT GST-tagged protein solution was added to each well. Finally, 5 μL of the thoroughly mixed Thalidomide-Re reagent and GST Eu antibody working solution were added to each of the aforementioned wells. The final concentration of the tested compounds and lenalidomide in each well was 2 μM. • 3. The blank control wells were sequentially added with 2.5 μL of diluent #9 (1×) solution, 2.5 μL of PROTAC binding buffer, and 5 μL of thoroughly mixed Thalidomide-Re reagent and GST Eu antibody working solution. • 4. After sealing and incubating the solutions in the aforementioned wells at room temperature for 3 hours, the absorbance values at emission wavelengths of 620 nm and 665 nm were detected by the HTRF method using a Spark microplate reader (V3.1 SP1).
The corresponding CRBN binding inhibition rate was calculated using the following method:
Rcompound=OD 665 nmcompound/OD 620 nmcompound−OD 665 nmcontrol/OD 620 nmcontrol
RStd0=OD 665 nmStd0/OD 620 nmStd0−OD 665 nmcontrol/OD 620 nmcontrol inhibition rate (%)=(1−Rcompound/RStd0)*100
Note: OD 665 nmcompound is the absorbance value of each well of the compounds to be tested of the present disclosure at an emission wavelength of 665 nm. OD 620 nmcompound is the absorbance value of each well of the compounds to be tested of the present disclosure at an emission wavelength of 620 nm. OD 665 nmcontrol is the absorbance value of the blank control well at an emission wavelength of 665 nm. OD 620 nmcontrol is the absorbance value of the blank control well at an emission wavelength of 620 nm. OD 665 nmStd0 is the absorbance value of the solvent control well at an emission wavelength of 665 nm. OD 620 nmStd0 is the absorbance value of the solvent control well at an emission wavelength of 620 nm.

[6] = Table IE3, CDK4/6 inhibitor-based
[7] = NCI-H292, Table IE2, CDK4/6 inhibitor-based
[8] = NCI-H292, Table IM1, CDK9 inhibitor-based

T1 sequence (Q96SW2 whole entry): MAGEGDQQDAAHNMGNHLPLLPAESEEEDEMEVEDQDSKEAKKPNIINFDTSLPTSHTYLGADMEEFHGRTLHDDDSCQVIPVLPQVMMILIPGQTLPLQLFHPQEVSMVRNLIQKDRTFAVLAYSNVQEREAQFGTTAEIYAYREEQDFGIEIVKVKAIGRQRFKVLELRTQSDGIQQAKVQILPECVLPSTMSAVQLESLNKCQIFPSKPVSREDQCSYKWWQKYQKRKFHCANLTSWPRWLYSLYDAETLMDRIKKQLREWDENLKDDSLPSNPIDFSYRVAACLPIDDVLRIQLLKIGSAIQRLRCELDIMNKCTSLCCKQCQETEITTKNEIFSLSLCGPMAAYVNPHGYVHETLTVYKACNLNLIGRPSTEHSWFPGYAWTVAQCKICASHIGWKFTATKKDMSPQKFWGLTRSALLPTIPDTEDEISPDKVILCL

| SMILES | inhibition at 0.01 µM [1, 6] [%] | inhibition at 0.5 µM [1, 6] [%] | inhibition at 0.01 µM [2, 7] [%] | inhibition at 0.5 µM [2, 7] [%] | inhibition at 0.01 µM [2, 8] [%] | inhibition at 0.5 µM [2, 8] [%] | further results |
| --- | --- | --- | --- | --- | --- | --- | --- |
| CC(=O)c1c(C)c2cnc(Nc3ccc(N4CCC(N5CCN(Cc6ccc7c(c6)C(=O)N(N6CCC(=O)NC6=O)C7=O)CC5)CC4)cn3)nc2n(C2CCCC2)c1=O [GT-06583, 5-((4-(1-(6-((6-acetyl-8-cyclopentyl-5-methyl-7-oxo-7,8-dihydropyrido[2,3-d]pyrimidin-2-yl)amino)pyridin-3-yl)piperidin-4-yl)piperazin-1-yl)methyl)-2-(2,4-dioxotetrahydropyrimidin-1(2H)-yl)isoindoline-1,3-dione] | 40 to 60 | 40 to 60 | 35 to 40 | 40 to 60 |  |  |  |
| Cn1c2ccncc2c2ccc(-c3cnc(N4CCN(Cc5ccc6c(c5)CN(N5CCC(=O)NC5=O)C6=O)CC4)c(C(F)(F)F)c3)cc21 [GT-08539, 1-(5-((4-(5-(5-methyl-5H-pyrido[4,3-b]indol-7-yl)-3-(trifluoromethyl)pyridin-2-yl)piperazin-1-yl)methyl)-1-oxoisoindolin-2-yl)dihydropyrimidine-2,4 (1H,3H)-dione] |  |  |  |  |  |  | inhibition at 0.01 µM ([1]; Table IJ2, Tau inhibitor-based): 30 to 40%; inhibition at 0.5 µM ([1]; Table IJ2, Tau inhibitor-based): 50 to 60%; inhibition at 0.01 µM ([3]; 10 nM, read-out: Inhibition Rate at 10 nM (%)): 20 to 30%; inhibition at 0.5 µM ([3]; 500 nM, read-out: Inhibition Rate at 500 nM (%)): 60 to 70%; inhibition at 0.01 µM ([4]; TMD8, 10 nM, read-out: Inhibition Rate at 10 nM (%)): 20 to 30%; inhibition at 0.5 µM ([4]; TMD8, 500 nM, read-out: Inhibition Rate at 500 nM (%)): 60 to 70%; inhibition at 0.5 µM ([5]; 0.5 μM, read-out: Inhibition Rate at 0.5 μM (%)): 20 to 30%; inhibition at 2 µM ([5]; 2 μM, read-out: Inhibition Rate at 2 μM (%)): 60 to 80% |
| CN(C)C(=O)c1cc2cnc(Nc3ccc(N4CCN(Cc5ccc6c(c5)CN(N5CCC(=O)NC5=O)C6=O)CC4)cn3)nc2n1C1CCCC1 [GT-06335, 7-cyclopentyl-2-((5-(4-((2-(2,4-dioxotetrahydropyrimidin-1(2H)-yl)-1-oxoisoindolin-5-yl)methyl)piperazin-1-yl)pyridin-2-yl)amino)-N,N-dimethyl-7H-pyrrolo[2,3-d]pyrimidine-6-carboxamide] | 10 to 15 | 40 to 60 | 35 to 40 | 30 to 35 |  |  |  |
| N#CC1(CNc2cccc(-c3cc(NC4CCN(CC5CCN(c6ccc7c(c6)C(=O)N(N6CCC(=O)NC6=O)C7=O)CC5)CC4)ncc3Cl)n2)CCOCC1 [GT-08348, 4-(((5′-chloro-2′-((1-((1-(2-(2,4-dioxotetrahydropyrimidin-1(2H)-yl)-1,3-dioxoisoindolin-5-yl)piperidin-4-yl)methyl)piperidin-4-yl)amino)-[2,4′-bipyridin]-6-yl)amino)methyl)tetrahydro-2H-pyran-4-carbonitrile] |  |  |  |  | -5 to 0 | 30 to 40 |  |
| CN(C)C(=O)c1cc2cnc(Nc3ccc(N4CCC(CN5CCN(c6cccc7c6C(=O)N(N6CCC(=O)NC6=O)C7=O)CC5)CC4)cn3)nc2n1C1CCCC1 [GT-05202, 7-cyclopentyl-2-((5-(4-((4-(2-(2,4-dioxotetrahydropyrimidin-1(2H)-yl)-1,3-dioxoisoindolin-4-yl)piperazin-1-yl)methyl)piperidin-1-yl)pyridin-2-yl)amino)-N,N-dimethyl-7H-pyrrolo[2,3-d]pyrimidine-6-carboxamide] | 15 to 20 | 40 to 60 | 35 to 40 | 35 to 40 |  |  |  |
| N#CC1(CNc2cccc(-c3cc(NC4CCN(CC5CCN(c6cccc7c6C(=O)N(N6CCC(=O)NC6=O)C7=O)CC5)CC4)ncc3Cl)n2)CCOCC1 [GT-08349, 4-(((5′-chloro-2′-((1-((1-(2-(2,4-dioxotetrahydropyrimidin-1(2H)-yl)-1,3-dioxoisoindolin-4-yl)piperidin-4-yl)methyl)piperidin-4-yl)amino)-[2,4′-bipyridin]-6-yl)amino)methyl)tetrahydro-2H-pyran-4-carbonitrile] |  |  |  |  | 15 to 20 | 20 to 30 |  |
| Cn1ncc(-c2nc(NC3CCN(CC4CCN(c5ccc6c(c5)C(=O)N(N5CCC(=O)NC5=O)C6=O)CC4)CC3)ncc2Cl)c1CC1CC1 [GT-08346, 5-(4-((4-((5-chloro-4-(5-(cyclopropylmethyl)-1-methyl-1H-pyrazol-4-yl)pyrimidin-2-yl)amino)piperidin-1-yl)methyl)piperidin-1-yl)-2-(2,4-dioxotetrahydropyrimidin-1(2H)-yl)isoindoline-1,3-dione] |  |  |  |  | 0 to 5 | 50 to 60 |  |
